Measured values from ChEMBL document CHEMBL1201861, “Genomics of Drug Sensitity in Cancer screening data, Wellcome Trust Sanger Institute”.

Assays:
GDM-1 = assay: cells; format: functional, cell-based, Homo sapiens;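 note: cell viability readout used to measure growth inhibition of human GDM-1 cells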
Description: SANGER: Inhibition of human GDM-1 cell growth in a cell viability assay.

IM-9 = assay: SANGER: Inhibition of human IM-9 cell growth in a cell viability assay.; format: functional, cell-based
IST-SL2 = assay: cells; format: functional, cell-based, Homo sapiens;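 note: growth inhibition of human IST-SL2 cells, read out by a cell viability assay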
Description: SANGER: Inhibition of human IST-SL2 cell growth in a cell viability assay.

MHH-CALL-2 = assay: cells; format: functional, cell-based, Homo sapiens;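 note: growth inhibition of the cell line, read out in a cell viability assay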
Description: SANGER: Inhibition of human MHH-CALL-2 cell growth in a cell viability assay.

MOLT-13 = assay: cells; format: functional, cell-based, Homo sapiens; conditions: Homo sapiens, MOLT-13;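 note: IC50 for suppression of MOLT-13 cell growth, read out with a cell viability assay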
Description: SANGER: Inhibition of human MOLT-13 cell growth in a cell viability assay.

MRK-nu-1 = assay: cells; format: functional, cell-based, Homo sapiens;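 note: cell viability assay measuring growth suppression of human MRK-nu-1 cells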
Description: SANGER: Inhibition of human MRK-nu-1 cell growth in a cell viability assay.

NCI-H1417 = assay: cells; format: functional, cell-based, Homo sapiens;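 note: human NCI-H1417 cells, growth inhibition determined with a cell viability readout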
Description: SANGER: Inhibition of human NCI-H1417 cell growth in a cell viability assay.

NCI-H1882 = assay: cells; format: functional, cell-based, Homo sapiens;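 note: growth inhibition of the cell line, determined with a viability assay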
Description: SANGER: Inhibition of human NCI-H1882 cell growth in a cell viability assay.

NCI-H2141 = assay: cells; format: functional, cell-based, Homo sapiens;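 note: growth inhibition of human NCI-H2141 cells, read out with a cell viability assay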
Description: SANGER: Inhibition of human NCI-H2141 cell growth in a cell viability assay.

NCI-H345 = assay: cells; format: functional, cell-based, Homo sapiens;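 note: growth inhibition of NCI-H345 cells measured with a cell viability assay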
Description: SANGER: Inhibition of human NCI-H345 cell growth in a cell viability assay.

NCI-H889 = assay: cells; format: functional, cell-based, Homo sapiens;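 note: cell growth inhibition of the cell line, read out with a viability assay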
Description: SANGER: Inhibition of human NCI-H889 cell growth in a cell viability assay.

P31-FUJ = assay: cells; format: functional, cell-based, Homo sapiens;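 note: growth inhibition of P31-FUJ cells, read out with a viability assay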
Description: SANGER: Inhibition of human P31-FUJ cell growth in a cell viability assay.

SNU-C1 = assay: cells; format: functional, cell-based, Homo sapiens;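 note: growth inhibition of SNU-C1 human cells, read out by a cell viability assay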
Description: SANGER: Inhibition of human SNU-C1 cell growth in a cell viability assay.

CA46 = assay: cells; format: functional, cell-based, Homo sapiens;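 note: growth inhibition of human CA46 cells, read out by a cell viability assay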
Description: SANGER: Inhibition of human CA46 cell growth in a cell viability assay.

COLO-792 = assay: cells; format: functional, cell-based, Homo sapiens; conditions: colo-792
Description: SANGER: Inhibition of human COLO-792 cell growth in a cell viability assay.

Capan-2 = assay: cells; format: functional, cell-based, Homo sapiens; conditions: capan-2;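 note: Capan-2 cell growth inhibition, read out with a viability assay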
Description: SANGER: Inhibition of human Capan-2 cell growth in a cell viability assay.

EFO-27 = assay: cells; format: functional, cell-based, Homo sapiens; conditions: efo-27;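 note: growth inhibition of EFO-27 cells, read out with a cell viability assay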
Description: SANGER: Inhibition of human EFO-27 cell growth in a cell viability assay.

ESS-1 = assay: cells; format: functional, cell-based, Homo sapiens; conditions: ess-1;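 note: growth inhibition of human ESS-1 cells, read out by a cell viability assay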
Description: SANGER: Inhibition of human ESS-1 cell growth in a cell viability assay.

G-402 = assay: cells; format: functional, cell-based, Homo sapiens; conditions: g-402
Description: SANGER: Inhibition of human G-402 cell growth in a cell viability assay.

HCC1569 = assay: cells; format: functional, cell-based, Homo sapiens; conditions: hcc1569;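 note: growth inhibition of human HCC1569 cells, read out with a cell viability assay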
Description: SANGER: Inhibition of human HCC1569 cell growth in a cell viability assay.

HCC70 = assay: cells; format: functional, cell-based, Homo sapiens; conditions: hcc70;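 note: cell viability assay measuring how strongly the compound suppresses proliferation of HCC70 cells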
Description: SANGER: Inhibition of human HCC70 cell growth in a cell viability assay.

HuO-3N1 = assay: cells; format: functional, cell-based, Homo sapiens; conditions: huo-3n1;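 note: cell viability readout used to measure how strongly compounds suppress proliferation of human HuO-3N1 cells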
Description: SANGER: Inhibition of human HuO-3N1 cell growth in a cell viability assay.

HuP-T4 = assay: cells; format: functional, cell-based, Homo sapiens; conditions: hup-t4;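 note: cell viability assay measuring how much HuP-T4 cell growth is inhibited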
Description: SANGER: Inhibition of human HuP-T4 cell growth in a cell viability assay.

IGROV-1 = assay: cells; format: functional, cell-based, Homo sapiens; conditions: igrov-1;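 note: reduction of IGROV-1 cell growth, read out with a viability assay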
Description: SANGER: Inhibition of human IGROV-1 cell growth in a cell viability assay.

KYSE-410 = assay: cells; format: functional, cell-based, Homo sapiens; conditions: kyse-410;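 note: growth inhibition of KYSE-410 cells, measured through a cell viability readout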
Description: SANGER: Inhibition of human KYSE-410 cell growth in a cell viability assay.

LCLC-97TM1 = assay: cells; format: functional, cell-based, Homo sapiens; conditions: lclc-97tm1;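 note: cell viability assay measuring growth inhibition of human LCLC-97TM1 cells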
Description: SANGER: Inhibition of human LCLC-97TM1 cell growth in a cell viability assay.

MDA-MB-157 = assay: cells; format: functional, cell-based, Homo sapiens; conditions: mda-mb-157
Description: SANGER: Inhibition of human MDA-MB-157 cell growth in a cell viability assay.

NCI-H28 = assay: cells; format: functional, cell-based, Homo sapiens; conditions: nci-h28;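 note: growth inhibition of human NCI-H28 cells, read out as cell viability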
Description: SANGER: Inhibition of human NCI-H28 cell growth in a cell viability assay.

NCI-H520 = assay: cells; format: functional, cell-based, Homo sapiens; conditions: nci-h520;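 note: growth inhibition of NCI-H520 cells, measured by a cell viability assay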
Description: SANGER: Inhibition of human NCI-H520 cell growth in a cell viability assay.

OVCAR-5 = assay: cells; format: functional, cell-based, Homo sapiens; conditions: ovcar-5;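 note: growth inhibition of human OVCAR-5 cells, read out with a cell viability assay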
Description: SANGER: Inhibition of human OVCAR-5 cell growth in a cell viability assay.

PANC-03-27 = assay: cells; format: functional, cell-based, Homo sapiens; conditions: panc-03-27
Description: SANGER: Inhibition of human PANC-03-27 cell growth in a cell viability assay.

RVH-421 = assay: cells; format: functional, cell-based, Homo sapiens; conditions: rvh-421
Description: SANGER: Inhibition of human RVH-421 cell growth in a cell viability assay.

SK-MES-1 = assay: cells; format: functional, cell-based, Homo sapiens; conditions: sk-mes-1;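 note: growth inhibition of human SK-MES-1 cells, read out with a cell viability assay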
Description: SANGER: Inhibition of human SK-MES-1 cell growth in a cell viability assay.

SN12C = assay: cells; format: functional, cell-based, Homo sapiens; conditions: sn12c;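 note: growth inhibition of human SN12C cells, measured by a cell viability assay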
Description: SANGER: Inhibition of human SN12C cell growth in a cell viability assay.

SW1463 = assay: cells; format: functional, cell-based, Homo sapiens; conditions: sw1463;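 note: growth inhibition of SW1463 cells, determined with a cell viability assay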
Description: SANGER: Inhibition of human SW1463 cell growth in a cell viability assay.

SW1710 = assay: cells; format: functional, cell-based, Homo sapiens; conditions: sw1710;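 note: growth inhibition of SW1710 cells, determined with a cell viability assay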
Description: SANGER: Inhibition of human SW1710 cell growth in a cell viability assay.

SW1990 = assay: cells; format: functional, cell-based, Homo sapiens; conditions: sw1990
Description: SANGER: Inhibition of human SW1990 cell growth in a cell viability assay.

SW756 = assay: cells; format: functional, cell-based, Homo sapiens; conditions: sw756;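 note: growth inhibition of human SW756 cells, read out with a cell viability assay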
Description: SANGER: Inhibition of human SW756 cell growth in a cell viability assay.

T-24 = assay: cells; format: functional, cell-based, Homo sapiens; conditions: t-24;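 note: growth inhibition of T-24 cells, read out with a cell viability assay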
Description: SANGER: Inhibition of human T-24 cell growth in a cell viability assay.

T47D = assay: cells; format: functional, cell-based, Homo sapiens; conditions: t47d;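 note: growth inhibition of human T47D cells, measured with a cell viability assay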
Description: SANGER: Inhibition of human T47D cell growth in a cell viability assay.

5637 = assay: cells; format: functional, cell-based, Homo sapiens
Description: SANGER: Inhibition of human 5637 cell growth in a cell viability assay.

CAL-12T = assay: cells; format: functional, cell-based, Homo sapiens; conditions: cal-12t;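 note: growth inhibition of human CAL-12T cells, read out with a cell viability assay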
Description: SANGER: Inhibition of human CAL-12T cell growth in a cell viability assay.

CAL-54 = assay: cells; format: functional, cell-based, Homo sapiens; conditions: cal-54;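 note: growth inhibition of CAL-54 cells, read out by a viability measurement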
Description: SANGER: Inhibition of human CAL-54 cell growth in a cell viability assay.

UO-31 = assay: cells; format: functional, cell-based, Homo sapiens; conditions: uo-31
Description: SANGER: Inhibition of human U031 cell growth in a cell viability assay.

VM-CUB-1 = assay: cells; format: functional, cell-based, Homo sapiens; conditions: vm-cub-1;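 note: cell viability assay measuring growth inhibition of the human VM-CUB-1 cell line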
Description: SANGER: Inhibition of human VM-CUB-1 cell growth in a cell viability assay.

Q: With COc1cc2ncn(-c3cc(OCc4ccccc4C(F)(F)F)c(C(N)=O)s3)c2cc1OC [GW843682X] as the compound, how does the IC50 (GDM-1; Homo sapiens, GDM-1) read?
A: 50.8 nM

Q: And the IC50 (IM-9; Homo sapiens, IM-9)?
A: > 256 nM

Q: And the IC50 (IST-SL2; Homo sapiens, IST-SL2)?
A: 112 nM

Q: What about the IC50 (MHH-CALL-2; Homo sapiens, MHH-CALL-2) of the same compound?
A: > 256 nM

Q: And the IC50 (MOLT-13)?
A: 12.1 nM

Q: And the IC50 (MRK-nu-1; Homo sapiens, MRK-nu-1)?
A: 30.1 nM

Q: What about the IC50 (NCI-H1417; Homo sapiens, NCI-H1417) of the same compound?
A: > 256 nM

Q: And the IC50 (NCI-H1882; Homo sapiens, NCI-H1882)?
A: 43.7 nM

Q: And the IC50 (NCI-H2141; Homo sapiens, NCI-H2141)?
A: 159 nM

Q: What about the IC50 (NCI-H345; Homo sapiens, NCI-H345) of the same compound?
A: > 256 nM

Q: What about the IC50 (NCI-H889; Homo sapiens, NCI-H889) of the same compound?
A: 92.4 nM

Q: And the IC50 (P31-FUJ; Homo sapiens, P31-FUJ)?
A: > 256 nM

Q: What about the IC50 (SNU-C1; Homo sapiens, SNU-C1) of the same compound?
A: > 256 nM

Q: And the IC50 (CA46; Homo sapiens, CA46)?
A: > 256 nM

Q: With COc1cc(-c2nn([C@H]3CC[C@H](N4CCN(C(C)=O)CC4)CC3)c3ncnc(N)c23)ccc1NC(=O)c1cc2ccccc2n1C as the compound, how does the IC50 (GDM-1; Homo sapiens, GDM-1) read?
A: > 5120 nM

Q: What about the IC50 (IM-9; Homo sapiens, IM-9) of the same compound?
A: > 5120 nM

Q: What about the IC50 (IST-SL2; Homo sapiens, IST-SL2) of the same compound?
A: 1160 nM

Q: What about the IC50 (MHH-CALL-2; Homo sapiens, MHH-CALL-2) of the same compound?
A: > 5120 nM

Q: And the IC50 (MOLT-13)?
A: > 5120 nM

Q: What about the IC50 (MRK-nu-1; Homo sapiens, MRK-nu-1) of the same compound?
A: 2950 nM

Q: What about the IC50 (NCI-H1417; Homo sapiens, NCI-H1417) of the same compound?
A: > 5120 nM

Q: What about the IC50 (NCI-H1882; Homo sapiens, NCI-H1882) of the same compound?
A: > 5120 nM

Q: And the IC50 (NCI-H2141; Homo sapiens, NCI-H2141)?
A: > 5120 nM

Q: What about the IC50 (NCI-H345; Homo sapiens, NCI-H345) of the same compound?
A: > 5120 nM

Q: And the IC50 (NCI-H889; Homo sapiens, NCI-H889)?
A: > 5120 nM

Q: And the IC50 (P31-FUJ; Homo sapiens, P31-FUJ)?
A: > 5120 nM

Q: What about the IC50 (SNU-C1; Homo sapiens, SNU-C1) of the same compound?
A: > 5120 nM

Q: What about the IC50 (CA46; Homo sapiens, CA46) of the same compound?
A: > 5120 nM

Q: For BLEOMYCIN, which IC50 (COLO-792) is on record?
A: 26400 nM

Q: What about the IC50 (Capan-2) of the same compound?
A: 24200 nM

Q: What about the IC50 (EFO-27) of the same compound?
A: 571 nM

Q: What about the IC50 (ESS-1) of the same compound?
A: 187 nM

Q: What about the IC50 (G-402) of the same compound?
A: 76.5 nM

Q: What about the IC50 (GDM-1; gdm-1) of the same compound?
A: 228 nM

Q: What about the IC50 (HCC1569) of the same compound?
A: 604 nM

Q: What about the IC50 (HCC70) of the same compound?
A: 126000 nM

Q: What about the IC50 (HuO-3N1) of the same compound?
A: 87800 nM

Q: And the IC50 (HuP-T4)?
A: 1310 nM

Q: What about the IC50 (IGROV-1) of the same compound?
A: 145 nM

Q: What about the IC50 (IM-9; im-9) of the same compound?
A: 4130 nM

Q: And the IC50 (IST-SL2; ist-sl2)?
A: 0.173 nM

Q: And the IC50 (KYSE-410)?
A: 8150 nM

Q: And the IC50 (LCLC-97TM1)?
A: 1500 nM

Q: What about the IC50 (MDA-MB-157) of the same compound?
A: 307000 nM

Q: And the IC50 (MHH-CALL-2; mhh-call-2)?
A: 535 nM

Q: What about the IC50 (MRK-nu-1; mrk-nu-1) of the same compound?
A: 1450 nM

Q: And the IC50 (NCI-H1417; nci-h1417)?
A: 30400 nM

Q: What about the IC50 (NCI-H1882; nci-h1882) of the same compound?
A: 11500 nM

Q: And the IC50 (NCI-H2141; nci-h2141)?
A: 36100 nM

Q: What about the IC50 (NCI-H28) of the same compound?
A: 2740 nM

Q: What about the IC50 (NCI-H345; nci-h345) of the same compound?
A: 814000 nM

Q: What about the IC50 (NCI-H520) of the same compound?
A: 16100 nM

Q: What about the IC50 (NCI-H889; nci-h889) of the same compound?
A: 513000 nM

Q: And the IC50 (OVCAR-5)?
A: 4750 nM

Q: What about the IC50 (P31-FUJ; p31-fuj) of the same compound?
A: 460000 nM

Q: What about the IC50 (PANC-03-27) of the same compound?
A: 316 nM

Q: And the IC50 (RVH-421)?
A: 2570 nM

Q: And the IC50 (SK-MES-1)?
A: 3070 nM

Q: What about the IC50 (SN12C) of the same compound?
A: 315000 nM

Q: What about the IC50 (SNU-C1; snu-c1) of the same compound?
A: 82000 nM

Q: What about the IC50 (SW1463) of the same compound?
A: 23400 nM

Q: And the IC50 (SW1710)?
A: 295 nM

Q: What about the IC50 (SW1990) of the same compound?
A: 4240 nM

Q: And the IC50 (SW756)?
A: 11400 nM

Q: And the IC50 (T-24)?
A: 720 nM

Q: What about the IC50 (T47D) of the same compound?
A: 168000 nM

Q: What about the IC50 5637 of the same compound?
A: 29 nM

Q: And the IC50 (CA46; ca46)?
A: 84800 nM

Q: And the IC50 (CAL-12T)?
A: 259 nM

Q: And the IC50 (CAL-54)?
A: 191 nM

Q: And the IC50 (UO-31)?
A: 934 nM

Q: What about the IC50 (VM-CUB-1) of the same compound?
A: 4920 nM
